# Values quoted from earlier work, collected in publication PMC9298350 (British Journal of Clinical Pharmacology, 2021).
smiles,measurement,setting,value
"Cc1c(N(C)CS(=O)(=O)O)c(=O)n(-c2ccccc2)n1C [metamizole, Metamizole]",Frequency of metamizole-associated agranulocytosis,,0.46–1.63 cases per 10^6 daily doses
same,Mortality associated with ingestion,review of the available literature,0.25 per 10^6 prescriptions
